Laboratory results: patent publication US6984499B2, “Method and apparatus for concurrently detecting pathogenic organisms and antimicrobial susceptibility” (IDEXX Laboratories, Inc., priority 1997, dated 2006)

Assays:
[1] = tested on: Enterobacter cloacae ATCC 13047; test: CR30 medium (CR30M) microdilution susceptibility; assay type: cell-based; settings: E. cloacae
Protocol: (§1) The medium is formulated according to techniques well known to those skilled in the art. The medium comprises the uropathogen specific medium with 32 mg/liter of cephalothin.
(§2) The representative primary gram negative urinary pathogens including Escherichia coli ATCC 25922, Klebsiella pneumoniae, Enterobacter cloacae ATCC 13047, and Proteus mirabilis were used to determine the antimicrobial efficacy of cephalothin in CR 30 medium in reaction to the standard Muller Hinton microdilution antimicrobial susceptibility ((NCCLS Antimicrobial Susceptibility Testing/SC3, January, 1996). Cephalothin was prepared in both standard Muller Hinton broth (MHB) and CR30 medium (CR30M) at the following concentrations: 128, 64, 32, 16, 8, 4, 2, and 0 mg/liter. Bacterial inocula used for each level of inoculation were 1–5×10^4 cfu/100 μl. The assays were performed in microliter wells at 35° C. for 18 hours.
(§3) The bacteria are defined as “resistant” to cephalothin if the organism has an MIC of ≧32 μg/ml, as “intermediate resistant” if the MIC is 16 μg/ml, and as “susceptible” if the MIC is 8 μg/ml as determined by the standard Muller Hinton broth (Manual of Clinical Microbiology, 6th ed. 1995; ASM Press).

Proteus mirabilis [2] = test: CR30 medium (CR30M) microdilution susceptibility; assay type: cell-based; settings: P. mirabilis
Protocol: as §1, §2, §3

[3] = tested on: Escherichia coli ATCC 25922; test: CR30 medium (CR30M) microdilution susceptibility; assay type: cell-based; settings: E. coli
Protocol: as §1, §2, §3

Klebsiella pneumoniae [4] = test: CR30 medium (CR30M) microdilution susceptibility; assay type: cell-based; settings: K. pneumoniae
Protocol: as §1, §2, §3

[5] = tested on: Enterobacter cloacae ATCC 13047; test: standard Muller Hinton broth (MHB) microdilution susceptibility; assay type: cell-based; settings: E. cloacae
Protocol: as §2, §3

Proteus mirabilis [6] = test: as above; assay type: cell-based; settings: P. mirabilis
Protocol: as §2, §3

[7] = tested on: Escherichia coli ATCC 25922; test: as above; assay type: cell-based; settings: E. coli
Protocol: as §2, §3

Klebsiella pneumoniae [8] = test: as above; assay type: cell-based; settings: K. pneumoniae
Protocol: as §2, §3

[9] = tested on: primary gram negative uropathogens; test: five-well device (TVB, UTI, AMO, AMC, ENR wells), fluorescence, four urine samples; assay type: cell-based; settings: Sample 2; incubation 18 hours
Excerpt: In a presently preferred embodiment, this invention comprises a device having a series of 5 test wells. Each well comprises a specific medium coupled with a fluorogenic enzyme substrate for the detection of target bacteria and their respective antibiotic resistance patterns. The wells produce a fluorescent signal when bacteria grow in them.
The wells were termed a total viable bacteria “TVB” well, a primary gram negative urinary tract infection organisms “UTI” well, and individual wells which contain an antimicrobial susceptibility media with an antibiotic amoxicillin “AMO”, clavulanic acid/amoxicillin (Clavamox®) “AMC”, or enrofloxacin (Baytril®) “ENR”.
The total viable bacteria “TVB” well, when it fluoresces, indicates the presence of bacteria in the urine sample. The “UTI” well fluoresces when the common Gram-negative uropathogens (E. coli, Klebsiella or Enterobacter spp., and P. mirabilis) are present in the urine sample. […]
For each device, after an incubation period of 18 hours, the wells were examined for the development of fluorescence and conclusions about the presence of primary urinary pathogens and their susceptibility to the antimicrobial agents employed were drawn.

[10] = tested on: gram negative urinary pathogens (Escherichia coli, Klebsiella spp, Enterobacter spp., Proteus spp.); test: AMO medium (amoxicillin) in urinary tract infection device; assay type: cell-based, feline and canine urine specimens
Protocol: The medium is formulated according to techniques well known to those skilled in the art. The medium comprises UTI media with amoxicillin at a concentration of 8 mg/liter.
A total of 303 feline and canine urine specimens were collected from the animals suspected of having urinary tract infection were tested with the “AMO” medium. A 50 μl aliquot of the urine specimen was added to 10 ml of sterile saline solution (0.85% NaCl solution). A 100 μl of the diluted urine specimens were added to the “AMO” medium in the urinary tract infection device; the device was then incubated at 35° C. for 24 hours.

[11] = tested on: gram negative urinary pathogens (Escherichia coli, Klebsiella spp, Enterobacter spp., Proteus spp.); test: standard Kirby-Bauer antimicrobial susceptibility assay, amoxicillin; assay type: cell-based, feline and canine urine specimens; settings: Total of 58
Protocol: (§4) For comparison a traditional microbiological culture, bacterial identification technique, and antimicrobial susceptibility test were performed. A portion of 1 μl urine specimen was streaked onto a blood agar plate; the plate was then incubated at 35° C. for 24–48 hours. […] The susceptibility of amoxicillin of the gram negative urinary pathogens (Escherichia coli, Klebsiella spp, Enterobacter supp., and Proteus spp.) Were performed by standard Kirby-Bauer antimicrobial susceptibility assay.

[12] = tested on: gram negative urinary pathogens (Escherichia coli, Klebsiella spp, Enterobacter spp., Proteus spp.); test: ENR medium (enrofloxacin) in urinary tract infection device; assay type: cell-based, feline and canine urine specimens
Protocol: The medium is formulated according to techniques well known to those skilled in the art. The media comprises UTI media with enrofloxacin (ENR) at a concentration of 2.0 mg/liter.
A total of 303 feline and canine urine specimens were collected from the animals suspected of having urinary tract infection were tested with the “ENR” medium. A 50 μl aliquot of the urine specimen was added to 10 ml of sterile saline solution (0.85% NaCl solution). A 100 μl of the diluted urine specimens was added to the “ENR” medium in the urinary tract infection device; the device was then incubated at 35° C. for 24 hours.

[13] = tested on: gram negative urinary pathogens (Escherichia coli, Klebsiella spp, Enterobacter spp., Proteus spp.); test: standard Kirby-Bauer antimicrobial susceptibility assay, enrofloxacin; assay type: cell-based, feline and canine urine specimens; settings: Total of 58
Protocol: as §4, with “enrofloxacin” for “amoxicillin”, “spp.,” for “supp.,”, “were” for “Were”

[14] = Susceptible by Kirby-Bauer Assay

## CC(=O)OCC1=C(C(=O)O)N2C(=O)[C@@H](NC(=O)Cc3cccs3)[C@H]2SC1 [cephalothin]
[1]
  categorical susceptibility to cephalothin: resistant
Proteus mirabilis [2]
  categorical susceptibility to cephalothin: susceptible
[3]
  categorical susceptibility to cephalothin: susceptible
Klebsiella pneumoniae [4]
  categorical susceptibility to cephalothin: susceptible
[5]
  categorical susceptibility to cephalothin: resistant
Proteus mirabilis [6]
  categorical susceptibility to cephalothin: susceptible
[7]
  categorical susceptibility to cephalothin: susceptible
Klebsiella pneumoniae [8]
  categorical susceptibility to cephalothin: susceptible

## CC1(C)S[C@@H]2[C@H](NC(=O)[C@H](N)c3ccc(O)cc3)C(=O)N2[C@H]1C(=O)O [Amoxicillin, amoxicillin]
[9]
  susceptibility of primary gram negative uropathogens to the antimicrobial agent: resistant
[10]; Resistant by Kirby-Bauer Assay
  number of specimens Resistant in AMO Medium: 21
  number of specimens Susceptible in AMO Medium: 1
[10]; [14]
  number of specimens Resistant in AMO Medium: 1
  number of specimens Susceptible in AMO Medium: 35
[10]; Total of 58
  number of specimens Resistant in AMO Medium: 22
  number of specimens Susceptible in AMO Medium: 36
[11]
  number of specimens Resistant by Kirby-Bauer Assay: 22
  number of specimens Susceptible by Kirby-Bauer Assay: 36

## CCN1CCN(c2cc3c(cc2F)c(=O)c(C(=O)O)cn3C2CC2)CC1 [Enrofloxacin, enrofloxacin]
[12]; Resistant by Kirby-Bauer Assay
  number of specimens Resistant in ENR Medium: 5
  number of specimens Susceptible in ENR Medium: 1
[12]; [14]
  number of specimens Resistant in ENR Medium: 2
  number of specimens Susceptible in ENR Medium: 50
[12]; Total of 58
  number of specimens Resistant in ENR Medium: 7
  number of specimens Susceptible in ENR Medium: 51
[9]
  susceptibility of primary gram negative uropathogens to the antimicrobial agent: susceptible
[13]
  number of specimens Resistant by Kirby-Bauer Assay: 6
  number of specimens Susceptible by Kirby-Bauer Assay: 52
